Source: ChEMBL document CHEMBL4411303, “Synthesis of tetrazole derivatives bearing pyrrolidine scaffold and evaluation of their antifungal activity against Candida albicans” (Eur J Med Chem, 2019)
Values after ≈ are worked out from the molar mass of the structure shown. Active and inactive are the calls of the source. The calls are words filed in the database; no cut-off is given here.

Columns and labels:
[1] = Toxicity in Galleria mellonella larvae assessed as survival rate at 47.9 uM measured after 18 hrs (reference value: 100%)
[2] = Toxicity in Galleria mellonella larvae assessed as survival rate at 47.9 uM measured after 48 hrs (reference value: 100%)
Candida albicans [3] = experiment: Antifungal activity against Candida albicans ATCC 90028 assessed as planktonic growth inhibition at 0.4 uM after 48 hrs by M27-A3 protocol based method relative to control; format: functional; conditions: ATCC 90028, 48 h, read-out: GI
Candida albicans [4] = experiment: Antifungal activity against Candida albicans ATCC 90028 assessed as planktonic growth inhibition at 1.5 uM after 48 hrs by M27-A3 protocol based method relative to control; format: functional; conditions: ATCC 90028, 48 h, read-out: GI
Vero [5] = experiment: Cytotoxicity against African green monkey Vero cells assessed as reduction in cell viability at 383.2 uM after 18 hrs by XTT assay relative to control; format: cell-based; conditions: chlorocebus sabaeus
Candida albicans [6] = experiment: Induction of Candida albicans ATCC 90028 internalization in mouse RAW264.7 cells assessed as reduction in fungus-induced cell damage by measuring live and early apoptotic cells at 47.9 uM after 2 hrs acridine orange/ethidium bromide staining based confocal scanning microscopic analysis; format: functional, organism-based
Candida albicans [7] = experiment: Antifungal activity against Candida albicans ATCC 90028 assessed as planktonic growth inhibition at 23.9 uM after 48 hrs by M27-A3 protocol based method relative to control; format: functional; conditions: ATCC 90028, 48 h, read-out: GI
[8] = Toxicity in Galleria mellonella larvae assessed as cocoon formation at 47.9 uM measured after 48 hrs (reference value: 100 +/- 0%)
Candida albicans [9] = experiment: Antifungal activity against Candida albicans ATCC 90028 assessed as planktonic growth inhibition at 12 uM after 48 hrs by M27-A3 protocol based method relative to control; format: functional; conditions: ATCC 90028, 48 h, read-out: GI
Candida albicans [10] = experiment: Antifungal activity against Candida albicans ATCC 90028 assessed as reduction in cell growth after 48 to 72 hrs by M27-A3 protocol based method; format: functional
Candida albicans [11] = experiment: Antifungal activity against Candida albicans ATCC 90028 assessed as reduction in cell growth after 48 to 72 hrs in presence of ergosterol by M27-A3 protocol based method; format: functional
Candida albicans [12] = experiment: Antifungal activity against Candida albicans ATCC 90028 assessed as planktonic growth inhibition at 0.09 uM after 48 hrs by M27-A3 protocol based method relative to control; format: functional; conditions: ATCC 90028, 48 h, read-out: GI
[13] = Toxicity in Galleria mellonella larvae assessed as survival rate at 47.9 uM measured after 120 hrs (reference value: 100%)
Candida albicans [14] = experiment: Antifungal activity against Candida albicans ATCC 90028 assessed as planktonic growth inhibition at 6 uM after 48 hrs by M27-A3 protocol based method relative to control; format: functional; conditions: ATCC 90028, 48 h, read-out: GI
Candida albicans [15] = experiment: Antifungal activity against Candida albicans ATCC 90028 assessed as planktonic growth inhibition at 47.9 uM after 48 hrs by M27-A3 protocol based method relative to control; format: functional; conditions: ATCC 90028, 48 h, read-out: GI
Candida albicans [16] = experiment: Fungicidal activity against Candida albicans ATCC 90028 assessed as log reduction in fungal load incubated for 48 hrs followed by replating on sabouraud dextrose agar plate and measured after 48 hrs; format: functional
Candida albicans [17] = experiment: Induction of reactive oxygen species generation in Candida albicans ATCC 90028 assessed as ROS level at 47.9 uM after 18 hrs by DCFDA probe based flow cytometry (reference value: 0.3%); format: functional
[18] = Toxicity in Galleria mellonella larvae assessed as movement melanization at 47.9 uM measured after 48 hrs (reference value: 0%)
Candida albicans [19] = experiment: Antifungal activity against Candida albicans ATCC 90028 assessed as planktonic growth inhibition at 0.2 uM after 48 hrs by M27-A3 protocol based method relative to control; format: functional; conditions: ATCC 90028, 48 h, read-out: GI
[20] = Toxicity in Galleria mellonella larvae assessed as cocoon formation at 47.9 uM measured after 48 hrs (reference value: 85 +/- 5%)
Candida albicans [21] = experiment: Antifungal activity against Candida albicans ATCC 90028 assessed as planktonic growth inhibition at 0.7 uM after 48 hrs by M27-A3 protocol based method relative to control; format: functional; conditions: ATCC 90028, 48 h, read-out: GI
Candida albicans [22] = experiment: Inhibition of Candida albicans ATCC 90028 cell adhesion to human TR146 cells at reduction in cell adherence at 47.9 uM relative to control; format: functional; conditions: ATCC 90028, TR146
[23] = Toxicity in Galleria mellonella larvae assessed as movement melanization at 47.9 uM measured after 128 hrs (reference value: 0%)
[24] = Selectivity index, ratio of CC50 for African green monkey Vero cells to IC50 for Candida albicans ATCC 90028; format: toxicity; conditions: read-out: Ratio CC50/IC50
[25] = Toxicity in Galleria mellonella larvae assessed as cocoon formation at 47.9 uM measured after 18 hrs (reference value: 60 +/- 20%)
[26] = Toxicity in Galleria mellonella larvae assessed as movement melanization at 47.9 uM measured after 18 hrs (reference value: 0%)
Candida albicans [27] = experiment: Antibiofilm activity against Candida albicans ATCC 90028 assessed as inhibition of biofilm formation […] after 24 hrs by XTT assay relative to control; format: functional, organism-based; conditions: ATCC 90028, 24 h
Candida albicans [28] = experiment: Antifungal activity against Candida albicans ATCC 90028 assessed as planktonic growth inhibition at 3 uM after 48 hrs by M27-A3 protocol based method relative to control; format: functional; conditions: ATCC 90028, 48 h, read-out: GI
Candida albicans [29] = experiment: Antifungal activity against Candida albicans ATCC 90028 assessed as planktonic growth inhibition at 0.08 uM after 48 hrs by M27-A3 protocol based method relative to control; format: functional; conditions: ATCC 90028, 48 h, read-out: GI
Candida albicans [30] = experiment: Induction of Candida albicans ATCC 90028 internalization in mouse RAW264.7 cells assessed as reduction in fungus-induced cell damage by measuring live and early apoptotic cells at 39.77 uM after 2 hrs acridine orange/ethidium bromide staining based confocal scanning microscopic analysis; format: functional, organism-based
Candida albicans [31] = experiment: Antifungal activity against Candida albicans ATCC 90028 assessed as planktonic growth inhibition at 0.31 uM after 48 hrs by M27-A3 protocol based method relative to control; format: functional; conditions: ATCC 90028, 48 h, read-out: GI
Candida albicans [32] = experiment: Antifungal activity against Candida albicans ATCC 90028 assessed as planktonic growth inhibition at 9.94 uM after 48 hrs by M27-A3 protocol based method relative to control; format: functional; conditions: ATCC 90028, 48 h, read-out: GI
Candida albicans [33] = experiment: Antifungal activity against Candida albicans ATCC 90028 assessed as planktonic growth inhibition at 0.62 uM after 48 hrs by M27-A3 protocol based method relative to control; format: functional; conditions: ATCC 90028, 48 h, read-out: GI
Candida albicans [34] = experiment: Antifungal activity against Candida albicans ATCC 90028 assessed as planktonic growth inhibition at 39.77 uM after 48 hrs by M27-A3 protocol based method relative to control; format: functional; conditions: ATCC 90028, 48 h, read-out: GI
Candida albicans [35] = experiment: Antifungal activity against Candida albicans ATCC 90028 assessed as planktonic growth inhibition at 0.16 uM after 48 hrs by M27-A3 protocol based method relative to control; format: functional; conditions: ATCC 90028, 48 h, read-out: GI
Candida albicans [36] = experiment: Antifungal activity against Candida albicans ATCC 90028 assessed as planktonic growth inhibition at 1.24 uM after 48 hrs by M27-A3 protocol based method relative to control; format: functional; conditions: ATCC 90028, 48 h, read-out: GI
Candida albicans [37] = experiment: Antifungal activity against Candida albicans ATCC 90028 assessed as planktonic growth inhibition at 2.49 uM after 48 hrs by M27-A3 protocol based method relative to control; format: functional; conditions: ATCC 90028, 48 h, read-out: GI
Candida albicans [38] = experiment: Antifungal activity against Candida albicans ATCC 90028 assessed as planktonic growth inhibition at 19.88 uM after 48 hrs by M27-A3 protocol based method relative to control; format: functional; conditions: ATCC 90028, 48 h, read-out: GI
Vero [39] = experiment: Cytotoxicity against African green monkey Vero cells assessed as reduction in cell viability at 318.16 uM after 18 hrs by XTT assay relative to control; format: cell-based; conditions: chlorocebus sabaeus
Candida albicans [40] = experiment: Antifungal activity against Candida albicans ATCC 90028 assessed as planktonic growth inhibition at 4.97 uM after 48 hrs by M27-A3 protocol based method relative to control; format: functional; conditions: ATCC 90028, 48 h, read-out: GI

Compound `c1ccc(-c2nnn(CCCN3CCCC3c3ccccc3)n2)cc1` (stereo not drawn) has a survival at 18 h, 47.9 µM [1] of 100%, a survival at 48 h, 47.9 µM [2] of 100% and an inhibition of growth at 0.4 µM (Candida albicans [3]) of 99.3%. The inhibition of growth at 1.5 µM (Candida albicans [4]) was 99.3%, the Activity (Vero [5]) was 100% and the Activity (Candida albicans [6]) was “Active”. For the same compound, the inhibition of growth at 23.9 µM (Candida albicans [7]) was 99.3%, the Activity [8] was 93% and the inhibition of growth at 12 µM (Candida albicans [9]) was 99.4%. It also gave an MIC (Candida albicans [10]) of 11.9 µM (≈ 3.97 µg/mL), an MIC (Candida albicans [11]) of 23.9 µM and an inhibition of growth at 0.09 µM (Candida albicans [12]) of 99.2%. For the same compound, the survival at 120 h, 47.9 µM [13] was 97%, the inhibition of growth at 6 µM (Candida albicans [14]) was 99.3% and the inhibition of growth at 47.9 µM (Candida albicans [15]) was 99.2%. For the same compound, the “log(activity)” value (Candida albicans [16]) was -0.4, the Activity (Candida albicans [17]) was 12 - 16% and the Activity [18] was 0%. The inhibition of growth at 0.2 µM (Candida albicans [19]) was 99.3%, the Activity [20] was 77% and the inhibition of growth at 0.7 µM (Candida albicans [21]) was 99.2%. The inhibition at 47.9 µM (Candida albicans [22]) was over 95%, the Activity [23] was 0% and the selectivity ratio [24] was 2. For the same compound, the Activity [25] was 67%, the Activity [26] was 0% and the IC50 (Candida albicans [27]) was 23.9 µM. The inhibition of growth at 3 µM (Candida albicans [28]) was 99.3%.

For `Clc1ccc(-c2nnn(CCCN3CCCC3c3ccc(Cl)cc3)n2)cc1` (stereo not drawn), the inhibition of growth at 0.08 µM (Candida albicans [29]) was 99.6%, the Activity (Candida albicans [30]) was “Active” and the inhibition of growth at 0.31 µM (Candida albicans [31]) was 99.2%. It also gave an inhibition of growth at 9.94 µM (Candida albicans [32]) of 99.3%, an inhibition of growth at 0.62 µM (Candida albicans [33]) of 99.5% and an inhibition of growth at 39.77 µM (Candida albicans [34]) of 99.6%. For the same compound, the “log(activity)” value (Candida albicans [16]) was -1.4, the inhibition of growth at 0.16 µM (Candida albicans [35]) was 99.5% and the inhibition of growth at 1.24 µM (Candida albicans [36]) was 99%. For the same compound, the inhibition of growth at 2.49 µM (Candida albicans [37]) was 99.7%, the inhibition of growth at 19.88 µM (Candida albicans [38]) was 99.3% and the Activity (Vero [39]) was 100%. The selectivity ratio [24] was 2, the IC50 (Candida albicans [27]) was 79.5 µM and the inhibition of growth at 4.97 µM (Candida albicans [40]) was 99.3%.
